Data taken from PubChem BioAssay AID1963845 (Molecular Pharmacology Branch, DTP, NCI, 2024).
pIC50: −log10 of the molar value.

Test system: 429239-143-T-J1-PDC complex spheroid viability
Assay: Anticancer human tumor 429239-143-T-J1-PDC patient-derived small cell lung carcinoma cell line growth inhibition [POLQ]
Details: for pIC50: curve of first compound; for viability, T/C: stronger effect = lower value
Procedure: Multicellular complex tumor spheroid response to Polymerase (POL) inhibitors (novobiocin, ART-558, RP6685) in combination with a variety of drugs and investigational agents in selected tumor cell lines
The POL inhibitors (novobiocin, ART-558, and RP6685) were evaluated both individually and in combination with standard of care and investigational anticancer small molecules within a complex spheroid model of solid tumors. . Complex spheroids include a stromal component modeled by human endothelial cells (HUVEC) and fibroblasts modeled by human mesenchymal stem cells (MSCs). The concentration ranges selected for each drug and investigational agent were based upon clinically achievable concentrations if the clinical Cmax of the agent was known.
Compounds. The drugs and investigational agents: novobiocin (NSC847541), ART-558 (NSC835418), RP-6685 (NSC848927), peposertib (NSC802822), ceralasertib (NSC780249), elimusertib (NSC800525), camonsertib (NSC841442), AZD-1390 (NSC803789), olaparib (NSC753686), talazoparib (NSC767125), rucaparib (NSC756644), sotorasib (NSC818433), MRTX-1133 (NSC836407), SN-38 (NSC673596), topotecan (NSC609699), epotoside (NSC141540), doxorubicin (NSC123127), gemcitabine (NSC613327), 5-fluorouracil (NSC19893), paclitaxel (NSC125973), vemurafenib (NSC761431), MSA-2 (NSC828583), SN-011 (NSC837082), adavosertib (NSC754352), prexasertib (NSC758257), carboplatin (NSC241240) and oxaliplatin (NSC266046), were obtained from the National Cancer Institute (NCI) Developmental Therapeutics Program Chemical Repository (21). The FDA-approved anticancer drug set is available from the Developmental Therapeutics Program at https://dtp.cancer.gov/organization/dscb/obtaining/. […] The stock solutions were prepared in dimethyl sulfoxide (DMSO, Sigma-Aldrich, St. Louis, MO, cat. D2650), except for the platinum compounds which were prepared in saline (Quality Biological, Gaithersburg, MD, cat. 114-055-101), at 800-fold the tested concentration and stored at -70 degrees C prior to their use. All drugs and investigational agents were tested over a range starting from a high concentration at or near the clinical Cmax and decreasing in half-log increments. If the clinical Cmax for an agent had not been determined, the highest concentration tested was 10 microM, except for SN-38, which was tested at a high concentration of 1 microM.
Cell Culture. All cells were maintained in an incubator at 37 degrees C and 5% CO2 with 95% humidity. The PDC lines were cultured according to standard operating procedures established by the NCI PDMR (https://pdmr.cancer.gov). Table 3 of the manuscript, lists the cell lines along with the number of the three cell types plated to form the mct-spheroids and media for tumor cell growth. After thawing, all PDC lines, except 997537-175-T-J1-PDC and 415267-285-R-J2-PDC, were cultured in Matrigel-coated flasks prepared with a working solution of 1X Ham's F-12 nutrient mix, without supplementation (Thermo Fisher Scientific, cat. 11765054), 100 U/mL penicillin-streptomycin (Thermo Fisher Scientific, cat. 15140122), and 2.5% Matrigel (Corning Inc., Corning, NY, cat. 354248) for the first three passages. The two PDC lines 997537-175-T-J1-PDC and 415267-285-R-J2-PDC were cultured on uncoated flasks. The 857933-349-R-J2-PDC line was cultured in 6C/Colon 1B media containing advanced DMEM/F-12 (Thermo Fisher Scientific, cat. 12634028), 10 mM HEPES (Thermo Fisher Scientific, cat. 15630080), 1X GlutaMAX supplement (Thermo Fisher Scientific, cat. 35050061), 0.1 mg/mL primocin (InvivoGen, San Diego, CA, cat. ant-pm-2), 10% defined fetal bovine serum, heat inactivated (HyClone Laboratories Inc., Logan, UT, cat. SH30070.03HI), 50% L-WRN conditioned media (ATCC, cat. CRL-3276), 1.25 mM N-Acetyl-L-cysteine (Sigma-Aldrich, cat. A9165), 10 mM nicotinamide (Sigma-Aldrich, cat. N0636), 1X B-27 supplement (Thermo Fisher Scientific, cat. 17504044), 1X N-2 supplement (Thermo Fisher Scientific, cat. […]

[1] = second compound 0.0316 µM, first compound 0.0316 µM
[2] = second compound 0.0316 µM, first compound 0.1 µM
[3] = second compound 0.0316 µM, first compound 0.316 µM
[4] = second compound 0.0316 µM, first compound 1 µM
[5] = second compound 0.0316 µM, first compound 3.16 µM
[6] = second compound 0.0316 µM, first compound 10 µM
[7] = second compound 0.1 µM, first compound 0.0316 µM
[8] = second compound 0.1 µM, first compound 0.1 µM
[9] = second compound 0.1 µM, first compound 0.316 µM
[10] = second compound 0.1 µM, first compound 1 µM
[11] = second compound 0.1 µM, first compound 3.16 µM
[12] = second compound 0.1 µM, first compound 10 µM
[13] = second compound 0.316 µM, first compound 0.0316 µM
[14] = second compound 0.316 µM, first compound 0.1 µM
[15] = second compound 0.316 µM, first compound 0.316 µM
[16] = second compound 0.316 µM, first compound 1 µM
[17] = second compound 0.316 µM, first compound 3.16 µM
[18] = second compound 0.316 µM, first compound 10 µM
[19] = second compound 1 µM, first compound 0.0316 µM
[20] = second compound 1 µM, first compound 0.1 µM
[21] = second compound 1 µM, first compound 0.316 µM
[22] = second compound 1 µM, first compound 1 µM
[23] = second compound 1 µM, first compound 3.16 µM
[24] = second compound 1 µM, first compound 10 µM
[25] = second compound 3.16 µM, first compound 0.0316 µM
[26] = second compound 3.16 µM, first compound 0.1 µM
[27] = second compound 3.16 µM, first compound 0.316 µM
[28] = second compound 3.16 µM, first compound 1 µM
[29] = second compound 3.16 µM, first compound 3.16 µM
[30] = second compound 3.16 µM, first compound 10 µM
[31] = second compound 10 µM, first compound 0.0316 µM
[32] = second compound 10 µM, first compound 0.1 µM
[33] = second compound 10 µM, first compound 0.316 µM
[34] = second compound 10 µM, first compound 1 µM
[35] = second compound 10 µM, first compound 3.16 µM
[36] = second compound 10 µM, first compound 10 µM
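Also: luminescence signal used as surrogate measure of viable cells; spheroids exposed to compounds for seven days before readout.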
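For viability, T/C in this document: 100% = DMSO vehicle control viability as luminescence relative to vehicle.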

## CCc1cc2c(N3CCc4c(cc(Cn5ccnc5)cc4-c4cn(C)nc4C(F)(F)F)C3=O)ccnc2c(OC)n1 + Cc1cccc(N(C)C(=O)C2C(O)CCN2c2nc(C)cc(C(F)(F)F)c2C#N)c1
Second compound 0.0316 µM
  pIC50: < 5.00
Second compound 0.1 µM
  pIC50: < 5.00
Second compound 0.316 µM
  pIC50: < 5.00
Second compound 1 µM
  pIC50: < 5.00
Second compound 3.16 µM
  pIC50: < 5.00
Second compound 10 µM
  pIC50: 5.07
[1]
  viability, T/C: 117%
[2]
  viability, T/C: 102%
[3]
  viability, T/C: 98.2%
[4]
  viability, T/C: 88.4%
[5]
  viability, T/C: 85.3%
[6]
  viability, T/C: 49.8%
[7]
  viability, T/C: 103%
[8]
  viability, T/C: 113%
[9]
  viability, T/C: 93.2%
[10]
  viability, T/C: 89.1%
[11]
  viability, T/C: 85.7%
[12]
  viability, T/C: 57.6%
[13]
  viability, T/C: 116%
[14]
  viability, T/C: 97.8%
[15]
  viability, T/C: 96.8%
[16]
  viability, T/C: 86%
[17]
  viability, T/C: 78.3%
[18]
  viability, T/C: 56.6%
[19]
  viability, T/C: 107%
[20]
  viability, T/C: 95.4%
[21]
  viability, T/C: 89.2%
[22]
  viability, T/C: 87.8%
[23]
  viability, T/C: 86.7%
[24]
  viability, T/C: 56.6%
[25]
  viability, T/C: 104%
[26]
  viability, T/C: 108%
[27]
  viability, T/C: 96.5%
[28]
  viability, T/C: 95.6%
[29]
  viability, T/C: 77.7%
[30]
  viability, T/C: 50.8%
[31]
  viability, T/C: 111%
[32]
  viability, T/C: 91.8%
[33]
  viability, T/C: 104%
[34]
  viability, T/C: 96.5%
[35]
  viability, T/C: 72.2%
[36]
  viability, T/C: 46.1%

## O=C(Nc1ccc(O)c(NS(=O)(=O)c2ccc(F)cc2)c1)c1ccc(-c2ccccc2)cc1 + Cc1cccc(N(C)C(=O)C2C(O)CCN2c2nc(C)cc(C(F)(F)F)c2C#N)c1
Second compound 0.0316 µM
  pIC50: < 5.00
Second compound 0.1 µM
  pIC50: < 5.00
Second compound 0.316 µM
  pIC50: < 5.00
Second compound 1 µM
  pIC50: < 5.00
Second compound 3.16 µM
  pIC50: < 5.00
Second compound 10 µM
  pIC50: < 5.00
[1]
  viability, T/C: 93.8%
[2]
  viability, T/C: 104%
[3]
  viability, T/C: 91.9%
[4]
  viability, T/C: 121%
[5]
  viability, T/C: 100%
[6]
  viability, T/C: 105%
[7]
  viability, T/C: 100%
[8]
  viability, T/C: 112%
[9]
  viability, T/C: 111%
[10]
  viability, T/C: 99.8%
[11]
  viability, T/C: 107%
[12]
  viability, T/C: 102%
[13]
  viability, T/C: 100%
[14]
  viability, T/C: 110%
[15]
  viability, T/C: 102%
[16]
  viability, T/C: 106%
[17]
  viability, T/C: 118%
[18]
  viability, T/C: 107%
[19]
  viability, T/C: 103%
[20]
  viability, T/C: 99.5%
[21]
  viability, T/C: 94.1%
[22]
  viability, T/C: 105%
[23]
  viability, T/C: 112%
[24]
  viability, T/C: 97%
[25]
  viability, T/C: 106%
[26]
  viability, T/C: 106%
[27]
  viability, T/C: 108%
[28]
  viability, T/C: 103%
[29]
  viability, T/C: 105%
[30]
  viability, T/C: 107%
[31]
  viability, T/C: 111%
[32]
  viability, T/C: 98.7%
[33]
  viability, T/C: 107%
[34]
  viability, T/C: 105%
[35]
  viability, T/C: 109%
[36]
  viability, T/C: 104%
